Publication PMC2748117 (Journal of medicinal chemistry, 2008)

Key:
[1] = system: human folylpolyglutamate synthetase; conditions: ref [23]; cited from earlier work
[2] = system: human DHFR; conditions: ref [22], [23]; cited from earlier work
[3] = system: KB cells; test: Colony formation and reversibility assay with KB cells; conditions: 0.1 to 100 nM drug, 10 days
[4] = system: KB cells; test: Growth inhibition of KB tumor cells, with folate/nucleoside/AICA protection; assay type: cell-based, human
[5] = system: CCRF-CEM leukemia cell; conditions: supraphysiologic folate; protected by hypoxanthine, not thymidine; ref [22], [23]; cited from earlier work
[6] = system: human TS; conditions: ref [22], [23]; cited from earlier work
[7] = system: human RFC; test: Inhibition of RFC-mediated [3H]MTX uptake in PC43-10 cells; assay type: cell-based; conditions: unlabeled compound 10 µM, 0.5 µM [3H]MTX, 2 min, 37°C
[8] = system: KB cells; test: Apoptosis assay, Annexin V-FITC flow cytometry; assay type: cell-based, human; conditions: 1 µM, 24 h, Annexin V positive cells

SMILES | Substrate activity for polyglutamylation [1] | Inhibition of purified human DHFR [2] | Inhibition of colony formation, continuous exposure [3] | Increase of IC50 between 2 nM and 20 nM LCV ([4]; KB cells, folate-free media, 20 nM versus 2 nM leucovorin) | Increase of IC50 at 40 nM LCV ([4]; KB cells, folate-free media, 40 nM versus 2 nM leucovorin) [fold] | Inhibition of CCRF-CEM leukemia cell growth [5] | Inhibition of purified human TS [6] | Inhibition of [3H]MTX uptake [7] [%] | Apoptosis level relative to the antifolate drugs [8] [factor] | Effect of thymidine on growth inhibitory activity toward KB cells ([4]; 10 µM thymidine) | Effect of adenosine on growth inhibition of KB cells ([4]; 60 µM adenosine) | Protection by AICA from growth inhibitory effects in KB cells ([4]; 192 µM AICA)
Nc1nc2[nH]c(CCCCc3ccc(C(=O)N[C@@H](CCC(=O)O)C(=O)O)cc3)cc2c(=O)[nH]1 [Compound 3, N-{4-[4-(2-Amino-4-oxo-4,7-dihydro-3H-pyrrolo[2,3-d]pyrimidin-6-yl)butyl]benzoyl}-L-glutamic Acid] | excellent substrates | poor inhibitors | more potent inhibitors than either compound 4 or MTX | approximately 3 fold | ~6 | modest inhibitors | poor inhibitors | – | – | – | – | –
Nc1nc(=O)c2nc(CNc3ccc(C(=O)N[C@@H](CCC(=O)O)C(=O)O)cc3)cnc2[nH]1 [folic acid] | – | – | – | – | – | – | – | < 20 | – | – | – | –
COc1cccc2c1C(=O)c1c(O)c3c(c(O)c1C2=O)C[C@@](O)(C(C)=O)C[C@@H]3O[C@H]1C[C@H](N)[C@H](O)[C@H](C)O1 [daunorubicin] | – | – | – | – | – | – | – | – | 4 | – | – | –
Nc1nc2[nH]c(CCCc3ccc(C(=O)N[C@@H](CCC(=O)O)C(=O)O)cc3)cc2c(=O)[nH]1 [Compound 2] | excellent substrates | poor inhibitors | more potent inhibitors than either compound 4 or MTX | – | – | modest inhibitors | poor inhibitors | – | – | no effect | completely reversed | completely protected
